Source: ChEMBL document CHEMBL1138135, “L-dopa- and dopamine-(R)-alpha-lipoic acid conjugates as multifunctional codrugs with antioxidant properties” (J Med Chem, 2006)
Values after ≈ are worked out from the molar mass of the structure shown. Active and inactive are the calls of the source. The rule behind the calls is not given here.

Legend:
[1] = Aqueous solubility at pH 7.4; assay type: physicochemical; settings: buffer
[2] = Aqueous solubility at pH 5.0; assay type: physicochemical; settings: buffer
[3] = Solubility in water; assay type: physicochemical
[4] = Partition co-efficient, log P of the compound; assay type: physicochemical; settings: octanol/water
Rattus norvegicus [5] = test: Increase in plasmatic Glutathione peroxidase activity after 3 hrs of administration of 132.64 mg/kg to Wistar rats; assay type: functional, organism-based; set-up: dose 132.64 mg/kg
Rattus norvegicus [6] = test: Decrease in plasmatic superoxide dismutase activity after 1 hr and 3 hrs of administration of 132.64 mg/kg to Wistar rats; assay type: functional, organism-based; set-up: dose 132.64 mg/kg
Rattus norvegicus [7] = test: Decrease in grooming behavior of Wistar rats after 2 hrs of administration of 132.64 mg/kg; assay type: functional, organism-based; set-up: dose 132.64 mg/kg
Rattus norvegicus [8] = test: Increase in plasmatic Glutathione peroxidase activity after 1 hr of administration of 132.64 mg/kg to Wistar rats; assay type: functional, organism-based; set-up: dose 132.64 mg/kg
[9] = Aqueous solubility at pH 1.3; assay type: physicochemical; settings: buffer
Rattus norvegicus [10] = test: Decrease in grooming behavior of Wistar rats after 1 hr of administration of 160.54 mg/kg; assay type: functional, organism-based; set-up: dose 160.54 mg/kg
Rattus norvegicus [11] = test: Decrease in plasmatic superoxide dismutase activity after 1 hr and 3 hrs of administration of 160.54 mg/kg to Wistar rats; assay type: functional, organism-based; set-up: dose 160.54 mg/kg
Rattus norvegicus [12] = test: Increase in plasmatic Glutathione peroxidase activity after 1 hr of administration of 160.54 mg/kg to Wistar rats; assay type: functional, organism-based; set-up: dose 160.54 mg/kg

Compound	solubility [1] [µg/mL]	solubility [2] [µg/mL]	solubility [3] [µg/mL]	logP [4]	Activity (Rattus norvegicus [5])	Activity (Rattus norvegicus [6])	Activity (Rattus norvegicus [7])	Activity (Rattus norvegicus [8])	solubility [9] [µg/mL]	Activity (Rattus norvegicus [10])	Activity (Rattus norvegicus [11])	Activity (Rattus norvegicus [12])
COC(=O)[C@H](Cc1ccc(O)c(O)c1)NC(=O)CCCC[C@@H]1CCSS1	13 (≈ 32.5 µM)	11 (≈ 27.5 µM)	12 (≈ 30 µM)	2.16	Active	Active	Active	Active	–	–	–	–
CC(=O)Oc1ccc(CCNC(=O)CCCC[C@@H]2CCSS2)cc1OC(C)=O	52 (≈ 122 µM)	47 (≈ 110 µM)	49 (≈ 115 µM)	3.65	–	–	–	–	0.47 (≈ 1.1 µM)	–	–	–
O=C(CCCC[C@@H]1CCSS1)NCCc1ccc(O)c(O)c1	1.1 (≈ 3.22 µM)	–	0.36 (≈ 1.05 µM)	3.4	–	–	–	–	0.87 (≈ 2.55 µM)	–	–	–
COC(=O)[C@H](Cc1ccc(OC(C)=O)c(OC(C)=O)c1)NC(=O)CCCC[C@@H]1CCSS1	38 (≈ 78.6 µM)	24 (≈ 49.6 µM)	233 (≈ 482 µM)	2.77	–	–	–	–	39 (≈ 80.6 µM)	Active	Active	Active
